Laboratory results taken from US10364263B2, “Cyclic phosphates and cyclic phosphoramidates for the treatment of neurologic disorders” (Retrophin, Inc., priority 2015, dated 2019).

The compounds below were run on PANK2 silenced human neuroblastoma IMR32 cells (PANK2−/−) (assay: Coenzyme A assay in PANK2 silenced cells (LC-MS quantification of free CoA)). Conditions: compound added twice (24 h + 24 h), relative to 0.1% DMSO controls.
Assay type: cell-based
How it was run: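 PANK2 shRNA-silenced IMR32 neuroblastoma cells were treated with compound (0.1% DMSO) for 24 h, then re-dosed with fresh compound for a further 24 h at 37 °C. TFA extracts of 1×10^6 cells were assayed for free CoA by LC-MS/MS (MRM 768.1→261.6/136.1). Results are given as fold change versus DMSO controls.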
`COC(=O)CCNC(=O)[C@@H]1O[P@](=O)(OCOC(=O)c2scnc2C(C)C)OCC1(C)C` [2-188, (((2R,4R)-4-((3-methoxy-3-oxopropyl)carbamoyl)-5,5-dimethyl-2-oxido-1,3,2-dioxaphosphinan-2-yl)oxy)methyl 4-isopropylthiazole-5-carboxylate] was tested, and the “PANK2−/− CoA (Fold Increase): fold increase in Coenzyme A (CoA) levels relative to controls” value was 131.48 Fold Increase. For `COC(=O)CCNC(=O)[C@@H]1OP(=O)(OCOC(=O)[C@@H]2COC(=O)N2C(=O)OC(C)(C)C)OCC1(C)C` (stereo partly drawn) [2-189, 3-(tert-butyl) 4-((((4R)-4-((3-methoxy-3-oxopropyl)carbamoyl)-5,5-dimethyl-2-oxido-1,3,2-dioxaphosphinan-2-yl)oxy)methyl) (4S)-2-oxooxazolidine-3,4-dicarboxylate], the “PANK2−/− CoA (Fold Increase): fold increase in Coenzyme A (CoA) levels relative to controls” value was 3.86 Fold Increase. For `COC(=O)CCNC(=O)[C@@H]1O[P@](=O)(OCOC(=O)c2cc(C)nn2C)OCC1(C)C` [2-190, (((2R,4R)-4-((3-methoxy-3-oxopropyl)carbamoyl)-5,5-dimethyl-2-oxido-1,3,2-dioxaphosphinan-2-yl)oxy)methyl 1,3-dimethyl-1H-pyrazole-5-carboxylate], the “PANK2−/− CoA (Fold Increase): fold increase in Coenzyme A (CoA) levels relative to controls” value was 52.24 Fold Increase. For `COC(=O)CCNC(=O)[C@@H]1O[P@@](=O)(OCOC(=O)c2scnc2C(C)(C)C)OCC1(C)C` [2-192, (((2S,4R)-4-((3-methoxy-3-oxopropyl)carbamoyl)-5,5-dimethyl-2-oxido-1,3,2-dioxaphosphinan-2-yl)oxy)methyl 4-(tert-butyl)thiazole-5-carboxylate], the “PANK2−/− CoA (Fold Increase): fold increase in Coenzyme A (CoA) levels relative to controls” value was 2.52 Fold Increase. In the case of `COC(=O)CCNC(=O)[C@@H]1O[P@](=O)(OCOC(=O)NCCSC(=O)[C@@H](N)C(C)C)OCC1(C)C` [2-193, methyl 3-((2R,4R)-2-((((2-((L-valyl)thio)ethyl)carbamoyl)oxy)methoxy)-5,5-dimethyl-2-oxido-1,3,2-dioxaphosphinane-4-carboxamido)propanoate], the “PANK2−/− CoA (Fold Increase): fold increase in Coenzyme A (CoA) levels relative to controls” value was 5.03 Fold Increase. In the case of `COC(=O)CCNC(=O)[C@@H]1O[P@@](=O)(OCOC(=O)NCCSC(=O)[C@@H](N)C(C)C)OCC1(C)C` [2-194, methyl 3-((2S,4R)-2-((((2-((L-valyl)thio)ethyl)carbamoyl)oxy)methoxy)-5,5-dimethyl-2-oxido-1,3,2-dioxaphosphinane-4-carboxamido)propanoate], the “PANK2−/− CoA (Fold Increase): fold increase in Coenzyme A (CoA) levels relative to controls” value was 11.44 Fold Increase. `COC(=O)CCNC(=O)[C@@H]1OP(=O)(OCOC(=O)NCCOC(=O)[C@@H](N)C(C)C)OCC1(C)C` (stereo partly drawn) [2-195, 2-((((((4R)-4-((3-methoxy-3-oxopropyl)carbamoyl)-5,5-dimethyl-2-oxido-1,3,2-dioxaphosphinan-2-yl)oxy)methoxy)carbonyl)amino)ethyl L-valinate] was tested, and the “PANK2−/− CoA (Fold Increase): fold increase in Coenzyme A (CoA) levels relative to controls” value was 1.91 Fold Increase. `COC(=O)CCNC(=O)[C@@H]1OP(=O)(OCOC(=O)[C@H]2COC(=O)N2C(=O)OC(C)(C)C)OCC1(C)C` (stereo partly drawn) [2-196, 3-(tert-butyl) 4-((((4R)-4-((3-methoxy-3-oxopropyl)carbamoyl)-5,5-dimethyl-2-oxido-1,3,2-dioxaphosphinan-2-yl)oxy)methyl) (4R)-2-oxooxazolidine-3,4-dicarboxylate] was tested, and the “PANK2−/− CoA (Fold Increase): fold increase in Coenzyme A (CoA) levels relative to controls” value was 1.97 Fold Increase. With `COC(=O)CCNC(=O)[C@@H]1O[P@](=O)(Oc2ccc(C(F)(F)F)cc2)OCC1(C)C` [2-197, methyl 3-((2R,4R)-5,5-dimethyl-2-oxido-2-(4-(trifluoromethyl)phenoxy)-1,3,2-dioxaphosphinane-4-carboxamido)propanoate] the “PANK2−/− CoA (Fold Increase): fold increase in Coenzyme A (CoA) levels relative to controls” value was 101.95 Fold Increase. For `COC(=O)CCNC(=O)[C@@H]1O[P@](=O)(Oc2ccc(C(F)(F)F)nc2)OCC1(C)C` [2-198, methyl 3-((2R,4R)-5,5-dimethyl-2-oxido-2-((6-(trifluoromethyl)pyridin-3-yl)oxy)-1,3,2-dioxaphosphinane-4-carboxamido)propanoate], the “PANK2−/− CoA (Fold Increase): fold increase in Coenzyme A (CoA) levels relative to controls” value was 13.6 Fold Increase. `COC(=O)CCNC(=O)[C@@H]1O[P@@](=O)(OCOC(=O)N[C@@H](CSC(=O)C(C)(C)C)C(=O)OCC(=O)c2ccccc2)OCC1(C)C` [2-199, 2-oxo-2-phenylethyl N-(((((2S,4R)-4-((3-methoxy-3-oxopropyl)carbamoyl)-5,5-dimethyl-2-oxido-1,3,2-dioxaphosphinan-2-yl)oxy)methoxy)carbonyl)-S-pivaloyl-L-cysteinate] was tested, and the “PANK2−/− CoA (Fold Increase): fold increase in Coenzyme A (CoA) levels relative to controls” value was 1.98 Fold Increase. In the case of `COC(=O)CCNC(=O)[C@@H]1O[P@@](=O)(OCOC(=O)N[C@@H](CSC(=O)C(C)(C)C)C(=O)O)OCC1(C)C` [2-200, N-(((((2S,4R)-4-((3-methoxy-3-oxopropyl)carbamoyl)-5,5-dimethyl-2-oxido-1,3,2-dioxaphosphinan-2-yl)oxy)methoxy)carbonyl)-S-pivaloyl-L-cysteine], the “PANK2−/− CoA (Fold Increase): fold increase in Coenzyme A (CoA) levels relative to controls” value was 1.84 Fold Increase. For `COC(=O)CCNC(=O)[C@@H]1O[P@](=O)(OCOC(=O)N[C@@H](CSC(=O)C(C)(C)C)C(=O)O)OCC1(C)C` [2-201, N-(((((2R,4R)-4-((3-methoxy-3-oxopropyl)carbamoyl)-5,5-dimethyl-2-oxido-1,3,2-dioxaphosphinan-2-yl)oxy)methoxy)carbonyl)-S-pivaloyl-L-cysteine], the “PANK2−/− CoA (Fold Increase): fold increase in Coenzyme A (CoA) levels relative to controls” value was 0.92 Fold Increase. With `COC(=O)CCNC(=O)[C@@H]1OP(=O)(OCOC(=O)N[C@@H](CSC(=O)C(C)(C)C)C(=O)OCC(=O)c2ccccc2)OCC1(C)C` (stereo partly drawn) [2-202, 2-oxo-2-phenylethyl N-(((((4R)-4-((3-methoxy-3-oxopropyl)carbamoyl)-5,5-dimethyl-2-oxido-1,3,2-dioxaphosphinan-2-yl)oxy)methoxy)carbonyl)-S-pivaloyl-L-cysteinate] the “PANK2−/− CoA (Fold Increase): fold increase in Coenzyme A (CoA) levels relative to controls” value was 2.62 Fold Increase. In the case of `COC(=O)CCNC(=O)[C@@H]1O[P@](=O)(OCOC(=O)N[C@@H](CSC(=O)C(C)(C)C)C(=O)OCc2ccccc2)OCC1(C)C` [2-206, benzyl N-(((((2R,4R)-4-((3-methoxy-3-oxopropyl)carbamoyl)-5,5-dimethyl-2-oxido-1,3,2-dioxaphosphinan-2-yl)oxy)methoxy)carbonyl)-S-pivaloyl-L-cysteinate], the “PANK2−/− CoA (Fold Increase): fold increase in Coenzyme A (CoA) levels relative to controls” value was 64.41 Fold Increase. For `CC(C)(C)OC(=O)CCNC(=O)[C@@H]1OP(=O)(O)OCC1(C)C` [Compound No. 2-111, tert-butyl 3-((4R)-2-hydroxy-5,5-dimethyl-2-oxido-1,3,2-dioxaphosphinane-4-carboxamido)propanoate], the “PANK2−/− CoA (Fold Increase): fold increase in Coenzyme A (CoA) levels relative to controls” value was 1.16 Fold Increase. With `COC(=O)CCNC(=O)[C@@H]1OP(=O)(Oc2ccc([N+](=O)[O-])cc2)OCC1(C)C` (stereo partly drawn) [Compound No. 2-134, Methyl 3-((4R)-5,5-dimethyl-2-(4-nitrophenoxy)-2-oxido-1,3,2-dioxaphosphinane-4-carboxamido)propanoate] the “PANK2−/− CoA (Fold Increase): fold increase in Coenzyme A (CoA) levels relative to controls” value was 5.37 Fold Increase. `COC(=O)CCNC(=O)[C@@H]1OP(=O)(OCOC(=O)c2ccno2)OCC1(C)C` (stereo partly drawn) [Compound No. 2-141, (((4R)-4-((3-methoxy-3-oxopropyl)carbamoyl)-5,5-dimethyl-2-oxido-1,3,2-dioxaphosphinan-2-yl)oxy)methyl isoxazole-5-carboxylate] was tested, and the “PANK2−/− CoA (Fold Increase): fold increase in Coenzyme A (CoA) levels relative to controls” value was 7.62 Fold Increase. In the case of `CC(C)(C)OC(=O)CCNC(=O)[C@@H]1O[P@](=O)(OCc2ccccc2)OCC1(C)C` [Compound No. 63, tert-butyl 3-((4R)-2-(benzyloxy)-5,5-dimethyl-2-oxido-1,3,2-dioxaphosphinane-4-carboxamido)propanoate], the “PANK2−/− CoA (Fold Increase): fold increase in Coenzyme A (CoA) levels relative to controls” value was 2.24 Fold Increase. In the case of `CCCC(=O)OCOP1(=O)OCC(C)(C)[C@H](C(=O)NCCC(=O)OC)O1` (stereo partly drawn) [Compound No. 66, (((4R)-4-((3-methoxy-3-oxopropyl)carbamoyl)-5,5-dimethyl-2-oxido-1,3,2-dioxaphosphinan-2-yl)oxy)methyl butyrate], the “PANK2−/− CoA (Fold Increase): fold increase in Coenzyme A (CoA) levels relative to controls” value was 83.72 Fold Increase. For `COC(=O)CCNC(=O)[C@@H]1OP(=O)(OCOC(=O)c2cnco2)OCC1(C)C` (stereo partly drawn) [Compound No. 87, (((4R)-4-((3-methoxy-3-oxopropyl)carbamoyl)-5,5-dimethyl-2-oxido-1,3,2-dioxaphosphinan-2-yl)oxy)methyl oxazole-5-carboxylate], the “PANK2−/− CoA (Fold Increase): fold increase in Coenzyme A (CoA) levels relative to controls” value was 58.7 Fold Increase. `CC(C)(C)C(=O)OCOP1(=O)OCC(C)(C)[C@H](C(=O)NCCC(=O)OCc2ccncc2)O1` (stereo partly drawn) [Compound No. 101, (((4R)-5,5-dimethyl-2-oxido-4-((3-oxo-3-(pyridin-4-ylmethoxy)propyl)carbamoyl)-1,3,2-dioxaphosphinan-2-yl)oxy)methyl pivalate] was tested, and the “PANK2−/− CoA (Fold Increase): fold increase in Coenzyme A (CoA) levels relative to controls” value was 81.66 Fold Increase. With `CC(C)OC(=O)OCOP1(=O)OCC(C)(C)[C@H](C(=O)NCCC(=O)O)O1` (stereo partly drawn) [Compound No. 104, 3-((4R)-2-(((isopropoxycarbonyl)oxy)methoxy)-5,5-dimethyl-2-oxido-1,3,2-dioxaphosphinane-4-carboxamido)propanoic acid] the “PANK2−/− CoA (Fold Increase): fold increase in Coenzyme A (CoA) levels relative to controls” value was 75.24 Fold Increase. `CCOC(=O)[C@H](CCc1ccccc1)NP1(=O)OCC(C)(C)[C@H](C(=O)NCCC(=O)OC)O1` (stereo partly drawn) [compound 6, ethyl (2S)-2-[[(4R)-4-[(3-methoxy-3-oxo-propyl)carbamoyl]-5,5-dimethyl-2-oxo-1,3,2-dioxaphosphinan-2-yl]amino]-4-phenyl-butanoate] was tested, and the “PANK2−/− CoA (Fold Increase): fold increase in Coenzyme A (CoA) levels relative to controls” value was 1.11 Fold Increase. In the case of `CCOC(=O)[C@H](CC(C)C)NP1(=O)OCC(C)(C)[C@H](C(=O)NCCC(=O)OC)O1` (stereo partly drawn) [compound 8, ethyl ((4R)-4-((3-methoxy-3-oxopropyl)carbamoyl)-5,5-dimethyl-2-oxido-3,3,2-dioxaphosphinan-2-yl)-L-leucinate], the “PANK2−/− CoA (Fold Increase): fold increase in Coenzyme A (CoA) levels relative to controls” value was 0.69 Fold Increase.
